Data reported in patent US20100029732A1, “Combinations of Beta-2-Adrenoceptor Agonistic Benzothiazolone” (ASTRAZENECA AB, priority 2007, published 2010).
Counter-ions that a name gives are not always drawn.

Assays:
Adrenergic β2 = biological target: T1, Adrenergic β2 (Homo sapiens, UniProt P07550); experiment: Adrenergic β2 mediated cAMP production in H292 cells (AlphaScreen); assay type: cell-based
T1 construct: Adherent H292 cells were removed from tissue culture flasks; endogenous in cells; host or cells: H292 cells
T1 sequence (P07550 whole entry): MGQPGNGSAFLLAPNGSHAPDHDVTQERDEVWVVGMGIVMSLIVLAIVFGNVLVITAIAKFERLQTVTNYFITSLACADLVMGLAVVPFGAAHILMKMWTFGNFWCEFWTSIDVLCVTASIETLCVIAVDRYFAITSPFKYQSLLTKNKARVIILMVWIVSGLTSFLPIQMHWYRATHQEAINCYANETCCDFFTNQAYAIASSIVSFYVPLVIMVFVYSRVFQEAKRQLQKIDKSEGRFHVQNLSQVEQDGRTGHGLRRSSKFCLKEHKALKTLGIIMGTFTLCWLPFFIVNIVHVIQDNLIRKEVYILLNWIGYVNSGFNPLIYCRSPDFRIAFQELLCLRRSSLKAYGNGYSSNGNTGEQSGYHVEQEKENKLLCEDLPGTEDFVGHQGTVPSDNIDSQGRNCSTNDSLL
Experimental: Adrenergic β2 Mediated cAMP Production
H292 cells were grown in 225 cm2 flasks incubator at 37° C., 5% CO2 in RPMI medium containing, 10% (v/v) FBS (foetal bovine serum) and 2 mM L-glutamine.
Adherent H292 cells were removed from tissue culture flasks by treatment with Accutase™ cell detachment solution for 15 minutes. Flasks were incubated for 15 minutes in a humidified incubator at 37° C., 5% CO2. Detached cells were re-suspended in RPMI media (containing 10% (v/v) FBS and […] L-glutamine) at 0.05×10^6 cells per 1 mL. 5000 cells in 100 μL were added to each well of a tissue-culture-treated 96-well plate and the cells incubated overnight in a humidified incubator at 37° C., 5% CO2. The culture media was removed and cells were washed twice with 100 μL assay buffer and replaced with 50 μL assay buffer (HBSS solution containing 10 mM HEPES pH7.4 and 5 mM glucose). […]
The concentration of cAMP (cyclic adenosine monophosphate) in the cell lysate was determined using AlphaScreen™ methodology. […] The AlphaScreen™ signal was measured using an EnVision spectrophotometer (Perkin-Elmer Inc.) with the recommended manufacturer's settings. cAMP concentrations were determined by reference to a calibration curve determined in the same experiment using standard cAMP concentrations. […] Intrinsic Activity was expressed as a fraction relative to the maximum activity determined for formoterol in each experiment. […]

[1] = system: guinea pig trachea contracted with methacholine; experiment: Bronchodilator activity in guinea pig isolated tracheal ring preparation: onset measurements; conditions: rings contracted with methacholine 1 μM, mean±s.e.mean, n=4
Experimental: Guinea pigs (300-500 g) were killed by cervical dislocation and the trachea was isolated. The trachea was cut into segments 2-3 cartilage rings in width and suspended in 10 ml organ baths in modified Krebs' solution (mM; NaCl, 90; NaHCO3, 45; KCl, 5; MgSO4.7H2O, 0.5; Na2HPO4.2H2O, 1; CaCl2, 2.25; glucose, 10; pH 7.4) gassed with 5% CO2, 95% O2 at 37° C.). The tracheal rings were attached to an isometric force transducer for the measurement of isometric tension. The tissues were washed and a force of 1 g was applied to each tissue. The rings were contracted with methacholine (1 μM). Once the contraction had reached a plateau, vehicle (0.01% DMSO in distilled H2O), compound A (3 nM), roflumilast (1 μM) or a combination of compound A (3 nM) and roflumilast (1 μM) was added and the tissue left until the response had reached a plateau. Data were collected using the Chart 4 software (ADInstruments, Charlgrove, UK). The time to 90% of the maximum effect of the bronchodilator (onset time) was measured and expressed in min (mean±s.e.mean).

[2] = system: LPS-induced intra-alveolar neutrophilia; experiment: Intra-alveolar neutrophil migration after intratracheal LPS challenge in the CRL:CD rat; assay type: in vivo; conditions: Compound W 3 ng/kg intratracheal 30 min prior to LPS 10 μg/kg; BAL 4 hr; mean±s.e.mean
Experimental: LPS challenge in CRL:CD rats causes an influx of neutrophils into the lungs. Under recoverable gaseous anaesthesia (5% isoflourane in oxygen), rats were dosed via the intatracheal route with vehicle (0.05M phosphate, 0.1% Tween 80, 0.6% saline, pH 6), or compound 30 min before challenge with an intratracheal dose of 10 μg/kg LPS.
The rats (250-400 g) were euthanized 4 hr after LPS challenge with 1 mL pentobarbitone sodium. A tracheotomy was performed and a calinula inserted. The airway was then lavaged using 3 mL Isoton at room temperature. The Isoton (BeckmanCoulter, High Wycombe, UK) was left in the airway for 10 seconds before being removed. The bronchio-alveolar lavage (BAL) fluid containing inflammatory cells was placed into a 15 mL centrifuge tube and kept on ice. This process was repeated three times. An aliquot of BAL fluid was removed and the inflammatory cells were counted on Sysmex (Sysmex UK, Milton Keynes). Neutrophils were expressed in millions/animal (mean±s.e.mean).

[3] = system: methacholine-induced bronchoconstriction; experiment: Lung function in anaesthetised guinea-pigs, methacholine challenge; assay type: in vivo, Dunkin-Hartley guinea pig; conditions: tiotropium bromide 0.03 μg/kg intratracheal 2 hours prior; after 5 μg/kg i.v. methacholine
Experimental: Male Dunkin-Hartley guinea pigs (300-600 g) were weighed and dosed with vehicle (0.05M phosphate, 0.1% Tween 80, 0.6% saline, pH 6) or compound via the intratracheal route under recoverable gaseous anaesthesia (5% halothane in oxygen). Animals were dosed with compound or vehicle two hours prior to the administration of histamine or methacholine.
Guinea pigs were anaesthetised with pentobarbitone (1 mL/kg of 60 mg/mL solution i.p.) approximately 30 minutes prior to the first bronchoconstrictor administration. The trachea was cannulated and the animal ventilated using a constant volume respiratory pump (Harvard Rodent Ventilator model 683) at a rate of 60 breath/min and a tidal volume of 5 ml/lkg. […]
The animals were transferred to a Flexivent System (SCIREQ, Montreal, Canada) in order to measure airway resistance. […] Respiratory resistance was measured using the Flexivent “snapshot” facility (1 second duration, 1 Hz frequency). […] After each administration of bronchoconstrictor the peak resistance value was recorded. […] Percentage bronchoprotection produced by a compound was calculated at each dose of brochoconstrictor as follows:
Where % change Rveh is the mean of the maximum percentage change in airway resistance in the vehicle treated group. The results reported were measured after 5 μg/kg histamine or methacholine and were expressed as percentage bronchoprotection (mean±s.e.mean).

CCN(CC)CCN(CCNCCc1ccc(O)c2[nH]c(=O)sc12)C(=O)CCOCCc1cccc2ccccc12 [Compound A, N-[2-(Diethylamino)ethyl]-N-(2-{[2-(4-hydroxy-2-oxo-2,3-dihydro-1,3-benzothiazol-7-yl)ethyl]amino}ethyl)-3-[2-(1-naphthyl)ethoxy]propanamide dihydrobromide]
β2 Int Act (Adrenergic β2; Intrinsic Activity as fraction relative to the maximum activity of formoterol): 0.8
onset time (time to 90% of the maximum effect of the bronchodilator) ([1]; compound A 3 nM): 16 ± 3.0 min

CNC(=O)c1cc(Cl)c(OC(C)(C)C(=O)O)cc1OC[C@@H](O)CN1CCC2(CC1)Cc1cc(Cl)ccc1O2 [Compound W, 2-{2-Chloro-5-{[(2S)-3-(5-chloro-1′H,3H-spiro[1-benzofuran-2,4′-piperidin]-1′-yl)-2-hydroxypropyl]oxy}-4-[(methylamino)carbonyl]phenoxy}-2-methylpropanoic acid]
BAL neutrophils [2]: 6.3±1.1 million/animal

CCN(CC)CCN(CCNCCc1ccc(O)c2[nH]c(=O)sc12)C(=O)CCOCCc1cccc2ccccc12 [N-[2-(Diethylamino)ethyl]-N-(2-{[2-(4-hydroxy-2-oxo-2,3-dihydro-1,3-benzothiazol-7-yl)ethyl]amino}ethyl)-3-[2-(1-naphthyl)ethoxy]propanamide]
selectivity of β2 adrenoceptor agonism (Adrenergic β2; over adrenergic α1D, adrenergic β1 and dopamine D2 activities): ≥ 10 fold

O=C(Nc1c(Cl)cncc1Cl)c1ccc(OC(F)F)c(OCC2CC2)c1 [roflumilast, 3-(cyclopropylmethoxy)-N-(3,5-dichloro-4-pyridinyl)-4-(difluoromethoxy)benzamide, reference compound]
onset time (time to 90% of the maximum effect of the bronchodilator) ([1]; roflumilast 1 μM): 26 ± 1.4 min

C[N+]1(C)[C@@H]2C[C@@H](OC(=O)C(O)(c3cccs3)c3cccs3)C[C@H]1[C@@H]1O[C@@H]12 [tiotropium bromide, Tiotropium bromide]
inhibition of methacholine-induced bronchoconstriction [3]: 13%
